From PubChem BioAssay AID463074 (Broad Institute, 2010) come the findings set out here.

Activity calls are given as the source filed them.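 The calls were made as follows: active = AC50 no more than tenfold above the top dose tested, or full inhibition at every dose with a flat fit (cut at about 19 µM in these data); inconclusive = flat curve fit with inhibition between 30% and 70%, or poor fit; inactive = AC50 more than tenfold above the top dose tested.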

For the experiment, the system named is HMLE_sh_eGFP viability, CellTiter-Glo luminescence, 72 h. As to the kind of experiment: viability loss of HMLE_sh_eGFP cells – cell-based, luminescence, counter-screen for HMLE_sh_ECad selective toxicity project, dose response (AID 463074).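 Also: counterscreen control line to flag general toxicity for the HMLE_sh_ECad screen; potency for loss of viability as luminescence drops below DMSO wells.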 A general note: Counterscreens check selectivity or assay interference.
In the case of `COc1cc(Br)cc(/C=C/c2ccc3cccc(O)c3n2)c1O`, the concentration at half-maximal activity (AC50) (commonly the midpoint of the concentration-response curve, whichever way the signal moves) was 3.91 µM. As to `CN(CC(=O)Nc1ccc(Cl)c(Cl)c1)CC(=O)Nc1ccc2c(c1)OCO2`, the AC50 is 17.2 µM. As to `Cc1cccc(NC(=S)N/N=C/c2c[nH]c3ccccc23)c1`, the half-maximal activity concentration (AC50) is 1.63 µM. With `O=C(COc1ccccc1-c1ccccc1)N/N=C/c1ccc2ccccc2c1`, the AC50 is 3.67 µM. For the compound `O=C(Nc1ccc(-c2csc(Nc3cccc(C(F)(F)F)c3)n2)cc1)c1ccccc1`, the concentration at half-maximal activity (AC50) was 1.96 µM. Turning to `COc1ccc(-c2sc3ccc(OC)cc3c2C#Cc2ccccn2)cc1`, the AC50 is 5.88 µM. With `O=C(Nc1nc(-c2cc(Cl)sc2Cl)cs1)c1cccs1` the figure was 2.42 µM; with `Cc1nn(Cc2ccc(Cl)cc2)c(C)c1NC(=O)c1cc(-c2ccc3c(c2)OCO3)on1`, 1.17 µM. For `Cc1cc2ccccn2c1C(=O)c1ccc([N+](=O)[O-])o1`, the AC50 is 5.71 µM. With `Cc1c(C(=O)N(Cc2ccccc2)Cc2cccs2)cnn1-c1ccc(Cl)cc1`, the AC50 was 1.42 µM. For `CCCCCCSc1cccc(-c2nc3ccc(C)cn3c2NCc2ccccc2)c1`, the concentration at half-maximal activity (AC50) was 3.37 µM. For the compound `COc1ccccc1NC(=O)c1ccc(S(=O)(=O)N2CCCC(C)C2)cc1` (stereo unspecified), the AC50 was > 19.5 µM (inactive). As to `COc1cc(/C=N/NC(=O)c2ccc(CN(C)S(=O)(=O)c3ccc(C)cc3)cc2)ccc1O`, the half-maximal activity concentration (AC50) is 5.13 µM. On to `Clc1ccc(CSc2nnnn2-c2ccc3c(c2)OCO3)c(Cl)c1`, for which the concentration at half-maximal activity (AC50) is 10.6 µM.

In the case of `Cc1ccc(NC(=O)c2nc[nH]c2C(=O)NCCCNC(=O)c2[nH]cnc2C(=O)Nc2ccc(C)cc2)cc1`, the AC50 was 3.86 µM. Then `CN1C(=O)/C(=C/c2cc(N=Nc3ccccc3)ccc2O)SC1=S`, with 1.29 µM; and `O=C(Nc1ccc(Cl)c(Cl)c1)Nc1ccccc1NS(=O)(=O)c1cccs1`, with 13.6 µM. On to `Cc1ccc(-c2cc(C(=O)NCc3ccc4c(c3)OCO4)no2)cc1`, for which the AC50 is > 19.5 µM (inactive).

As to `S=C(NCC1CCCCC1)Nc1ccc(Oc2ccccc2)cc1`, the AC50 was 5.41 µM. With `O=C(c1ccc(C#CC2(O)CCCCC2)cc1)N1CCN(C(c2ccccc2)c2ccccc2)CC1`, the half-maximal activity concentration (AC50) is 2.52 µM. On to `O=[N+]([O-])c1ccc(S(=O)(=O)CC(CN2CCCCC2)N2CCCCC2)cc1` (stereo unspecified), for which the concentration at half-maximal activity (AC50) was 5.37 µM. For the compound `C/C(=N\OCc1nc2ccccc2c(=O)n1/N=C/c1cc([N+](=O)[O-])ccc1O)c1ccccc1`, the AC50 was 16 µM.

As to `CCCCC(CC)CN1C(=O)/C(=C/c2ccncc2)SC1=S` (stereo unspecified), the concentration at half-maximal activity (AC50) was 6.81 µM.

In the case of `CCCCCCCCCCCCN1[C@@H](CC(C)=O)c2cc(F)ccc2S1(=O)=O`, the half-maximal activity concentration (AC50) was 10 µM. For `Cc1cc(C)c2sc(N(CCCN(C)C)C(=O)c3ccc(S(=O)(=O)N4CCCc5ccccc54)cc3)nc2c1`, the AC50 was 3.73 µM. For `CCN(CC)CCNC(=O)c1[nH]c2ccc(OCc3ccccc3)cc2c1C`, the AC50 was 1.81 µM. With `CCOC(=O)C1=C(CSc2nc3ccccc3s2)NC(=O)NC1c1ccc(OC)cc1` (stereo unspecified) the figure was 10.8 µM; with `CC(C)(C)OC(=O)[C@H](Cc1ccccc1)NC(=O)c1[nH]cnc1C(=O)Nc1cccc(Cl)c1`, 3.93 µM.

Turning to `Cc1ccc(C)c(NC(=O)c2cc(-c3ccccc3)nn2-c2ccccc2)c1`, the AC50 was 6.27 µM. With `O=C1C=C(c2cccs2)C[C@H](c2ccccc2)[C@H]1n1nnc([N+](=O)[O-])n1` the figure was 0.274 µM; with `Cc1ccc(C(=O)Nc2nc(C)c(C(=O)Nc3ccc4c(c3)CCC4)s2)cc1`, 18.8 µM; with `CCCCCc1cc(=O)oc2c(C(CCN3CCCCC3)c3ccc(OC)cc3)c(OC)cc(OC)c12` (stereo unspecified), 7.47 µM. Regarding `C=CCn1c(O)c(C2=c3ccccc3=NC2=O)c2ccccc21`, the AC50 was 7.4 µM.

On to `O=C(CSc1nc(-c2ccccc2)cc(C(F)(F)F)n1)c1cccc([N+](=O)[O-])c1`, for which the concentration at half-maximal activity (AC50) is 20.4 µM. With `O=C(CN1CCN(c2ccc(O)cc2)CC1)Nc1ccc(SC(F)F)cc1` the figure was 6.17 µM; with `C=C(C)COc1ccc(-c2[nH]ncc2-c2ccc(OC)c(OC)c2)c(O)c1`, 4.5 µM; with `Nc1ccc2c(c1)Oc1ccccc1C=C2`, > 19.5 µM (inactive). On to `NC(=O)CC(NC(=O)Cc1cccc2ccccc12)c1ccc(NCc2ccc(F)cc2)c([N+](=O)[O-])c1` (stereo unspecified), for which the AC50 was 19.8 µM. Regarding `C[C@@H]1CC=C[C@H]2[C@H]1C(=O)N(Cc1ccccc1)[C@H]2c1ccc2ccccc2c1`, the AC50 was 6.67 µM. Consider `CCCCNc1c(-c2ccc(-c3cccc(Cl)c3)cc2)nc2ccccn12`, for which the AC50 is 3.87 µM.

With `CCCCCCSc1ccc(-c2nc3ccccn3c2NCCCC)cc1`, the AC50 is 6.98 µM. Consider `CCCOc1c(OC)cccc1C1CC(=O)Nc2cc3c(cc21)OCCO3` (stereo unspecified), for which the AC50 was 2.95 µM. For the compound `O=C(Nc1nnc(-c2ccc(Cl)cc2)o1)c1nc2ccccc2s1`, the AC50 is 5.29 µM. As for `Cc1nc(SCc2nc3ccc(C(F)(F)F)cc3[nH]2)c2oc3ccccc3c2n1`, the half-maximal activity concentration (AC50) is 5.23 µM. `O=C(COc1ccccc1-c1ccccc1)N/N=C/c1cccc2ccccc12`: the AC50 was 0.608 µM. As for `O=c1c(Cl)c(NCc2ccc(F)cc2)cnn1C12CC3CC(CC(C3)C1)C2`, the AC50 is 2.15 µM. With `COc1ccc(-n2sc3c(c2=S)-c2cc(OC)ccc2NC3(C)C)cc1` the figure was 3.51 µM; with `CC(c1ccccc1)N1C(=O)/C(=C/c2ccncc2)SC1=S` (stereo unspecified), 17.2 µM. For `O=C1C=C(c2ccc(Cl)c(C(F)(F)F)c2)C[C@@H](c2ccc(Cl)cc2)C1`, the AC50 is 3.52 µM. `CC(C)(C)c1ccc(O)c(O)c1`: the concentration at half-maximal activity (AC50) is 13.3 µM. Take `CC(=O)Nc1ccc(N=Cc2c(O)c(C(=O)Nc3ccccc3)cc3ccccc23)cc1`: the AC50 is 4.21 µM. Consider `OC(COCC(F)(F)C(F)(F)C(F)(F)C(F)F)Cn1c2ccccc2c2ccccc21` (stereo unspecified), for which the AC50 is 6.63 µM. With `COc1ccc(NC(=O)c2nc[nH]c2C(=O)N[C@@H](CC(C)C)C(=O)OC(C)(C)C)cc1` the figure was 8.85 µM.

In the case of `COc1ccc(NC(=O)c2cc(-c3ccccc3OC)on2)cc1`, the concentration at half-maximal activity (AC50) was 0.983 µM. Take `COC(=O)c1cccc(NC(=O)Nc2ccc(Cl)c(Cl)c2)c1`: the AC50 was 11.4 µM.

In the case of `Cc1cccc(N2CCN(C(=O)c3cc4n(n3)C(C(F)(F)F)CC(c3ccco3)N4)CC2)c1C` (stereo unspecified), the concentration at half-maximal activity (AC50) was 9.71 µM. Take `Clc1ccc(-c2ccc(/C=N/Nc3cc(N4CCOCC4)nc(N4CCOCC4)n3)o2)cc1`: the AC50 was 4.24 µM. Then `CCN1CCN(c2cc(C)c3cc(NC(=S)N4CCN(c5ccc(F)cc5)CC4)ccc3n2)CC1`, with 4.67 µM; and `CN1CCC(OC(=O)c2cccc(Cl)c2)CC1`, with 3.33 µM. As for `CCc1ccc2nc(SCC(=O)Nc3ccccc3N3CCOCC3)c(C#N)cc2c1`, the AC50 was 2.73 µM. Take `CN1CCN(c2ccccc2NC(=O)c2ccc(-c3ccc(Cl)c(Cl)c3)o2)CC1`: the AC50 is 6.68 µM. Then `CCOc1cc2c(cc1OCC)-n1cccc1C(c1ccc(C(C)C)cc1)NC2` (stereo unspecified), with 6.13 µM. Then `COc1ccc(/C=C(\C#N)c2c[nH]c3ccccc23)cc1`, with 0.577 µM. Turning to `O=C1c2cc(Br)ccc2N(Cc2ccc(Br)cc2)S(=O)(=O)C1c1cc(Cl)c(Cl)cc1[N+](=O)[O-]` (stereo unspecified), the AC50 was 3.07 µM. Then `O=c1c2ccccc2nc2n1C1(CCCCC1)Cc1ccccc1-2`, with 4.03 µM; and `Cc1ccc(NC(=O)/C=C/c2ccc3c(c2)OCO3)nc1`, with 1.16 µM.
